Reference: US20070128217A1 (priority 2003, published 2007)

Assays:
[1] = tested on: antibodies in sera from SARS patients (sera 1a, 1b, 2, 6, 37, 62, London, SARS-yellow, SARS-green); type: binding, human; design: Binding of serum 6 to linear peptides of protein X1 of SARS-CoV Urbani / Binding of serum 37 to linear peptides of protein X1 of SARS-CoV Urbani / Binding of serum 6 to looped/cyclic peptide (PEPSCAN-ELISA) / Binding of serum 37 to looped/cyclic peptide (PEPSCAN-ELISA) / Binding of serum 37 to looped/cyclic peptides of protein X1 of SARS-CoV Urbani / Binding of serum 6 to linear peptides of protein X2 / Binding of serum 37 to linear peptides of protein X2 / Binding of serum 37 to looped/cyclic peptides of protein X2 of SARS-CoV Urbani / Binding of serum 6 to linear peptides of protein M of SARS-CoV Urbani / Binding of serum 37 to linear peptides of protein M of SARS-CoV Urbani / Binding of serum 6 to looped/cyclic peptides of protein M of SARS-CoV Urbani / Binding of serum 37 to looped/cyclic peptides of protein M of SARS-CoV Urbani / Binding of serum 6 to linear peptides of protein X3 of SARS-CoV Urbani / Binding of serum 37 to linear peptides of protein X3 of SARS-CoV Urbani / Binding of serum 37 to looped/cyclic peptides of protein X3 of SARS-CoV Urbani / Binding of serum 6 to linear peptides of protein X4 of SARS-CoV Urbani / Binding of serum 37 to linear peptides of protein X4 of SARS-CoV Urbani / Binding of serum 37 to looped/cyclic peptides of protein X4 of SARS-CoV Urbani / Binding of serum 6 to linear peptides of protein X5 of SARS-CoV Urbani / Binding of serum 37 to linear peptides of protein X5 of SARS-CoV Urbani / Binding of serum 37 to looped/cyclic peptides of protein X5 of SARS-CoV Urbani / Binding of serum 6 to linear peptides of protein N of SARS-CoV Urbani / Binding of serum 37 to linear peptides of protein N of SARS-CoV Urbani / Binding of serum 6 to linear peptide (PEPSCAN-ELISA) / Binding of serum 1a to looped/cyclic peptides of protein N of SARS-CoV Urbani / Binding of serum 1b to looped/cyclic peptides of protein N of SARS-CoV Urbani / Binding of serum 2 to looped/cyclic peptides of protein N of SARS-CoV Urbani / Binding of serum 6 to looped/cyclic peptides of protein N of SARS-CoV Urbani / Binding of serum 37 to looped/cyclic peptides of protein N of SARS-CoV Urbani / Binding of serum 62 to looped/cyclic peptides of protein N of SARS-CoV Urbani / Binding of serum London to looped/cyclic peptides of protein N of SARS-CoV Urbani / Binding of serum SARS-green to looped/cyclic peptides of protein N of SARS-CoV Urbani: unit not given here
[2] = tested on: control sera (pooled serum of ten healthy LUMC hospital workers; commercial negative donor pooled serum from the Dutch bloodbank); type: binding, human; design: Binding of Control serum LUMC to linear peptides / Binding of Control serum Blood-bank to linear peptides / Binding of Control serum LUMC to looped peptides / Binding of Control Serum Blood-Bank to Looped peptides / Binding of Control serum LUMC to linear peptides of the protein M of SARS-CoV Urbani / Binding of Control serum Blood-bank to linear peptides of the protein M of SARS-CoV Urbani / Binding of Control serum LUMC to looped peptides of the protein M of SARS-CoV Urbani / Binding of Control Serum Blood-Bank to Looped peptides of the protein M of SARS-CoV Urbani: unit not given here
[3] = tested on: rabbit serum obtained by immunizing a rabbit with the SARS-CoV strain Frankfurt 1; type: binding; design: Binding of a rabbit serum to linear peptides / Binding of a rabbit serum to looped peptides / Rabbit serum linear peptides / Rabbit serum looped peptides / Binding of a rabbit serum to linear peptides of protein N of SARS-CoV Urbani (Rabbit serum linear peptides) / Binding of a rabbit serum to looped/cyclic peptides of protein N of SARS-CoV Urbani (Rabbit serum looped peptides): unit not given here

For KMLHSSSLTSLLKTH, the “Binding of serum 1a to linear peptides of protein X2” value [1] was 0.6, the “Binding of serum 1a to looped/cyclic peptides of protein X2 of SARS-CoV Urbani” value [1] was 0.3 and the “Binding of serum 1b to linear peptides of protein X2” value [1] was 0.5. The “Binding of serum 1b to looped/cyclic peptides of protein X2 of SARS-CoV Urbani” value [1] was 0.4, the “Binding of serum 2 to linear peptides of protein X2” value [1] was 0.5 and the “Binding of serum 2 to looped/cyclic peptides of protein X2 of SARS-CoV Urbani” value [1] was 0.2. The “Binding of serum 6 to linear peptides of protein X2” value [1] was 0.6, the “Binding of serum 6 to looped/cyclic peptides of protein X2 of SARS-CoV Urbani” value [1] was 0.2 and the “Binding of serum 37 to linear peptides of protein X2” value [1] was 0.5. The “Binding of serum 37 to looped/cyclic peptides of protein X2 of SARS-CoV Urbani” value [1] was 0.2, the “Binding of serum 62 to linear peptides of protein X2” value [1] was 0.6 and the “Binding of serum 62 to looped/cyclic peptides of protein X2 of SARS-CoV Urbani” value [1] was 0.3. The “Binding of serum London to linear peptides of protein X2” value [1] was 0.9, the “Binding of serum London to looped/cyclic peptides of protein X2 of SARS-CoV Urbani” value [1] was 0.2 and the “Binding of serum SARS-green to linear peptides of protein X2” value [1] was 0.6. For the same sequence, the “Binding of serum SARS-green to looped/cyclic peptides of protein X2 of SARS-CoV Urbani” value [1] was 0.7, the “Binding of serum SARS-yellow to linear peptides of protein X2” value [1] was 0.4 and the “Binding of serum SARS-yellow to looped/cyclic peptides of protein X2 of SARS-CoV Urbani” value [1] was 0.3. The “Binding of Control Serum Blood-Bank to Looped peptides” value [2] was 0.3, the “Binding of Control serum Blood-bank to linear peptides” value [2] was 0.7 and the “Binding of Control serum LUMC to linear peptides” value [2] was 0.5. For the same sequence, the “Binding of Control serum LUMC to looped peptides” value [2] was 0.4, the “Binding of a rabbit serum to linear peptides” value [3] was 0.2 and the “Binding of a rabbit serum to looped peptides” value [3] was 0.2.
With KRWQLALYKGFQFIC the “Binding of serum 1a to linear peptides of protein X1 of SARS-CoV Urbani” value [1] was 0.6, the “Binding of serum 1a to looped/cyclic peptide (PEPSCAN-ELISA)” value [1] was 0.6 and the “Binding of serum 1b to linear peptides of protein X1 of SARS-CoV Urbani” value [1] was 0.5. The “Binding of serum 1b to looped/cyclic peptide (PEPSCAN-ELISA)” value [1] was 0.4, the “Binding of serum 2 to linear peptides of protein X1 of SARS-CoV Urbani” value [1] was 0.5 and the “Binding of serum 2 to looped/cyclic peptide (PEPSCAN-ELISA)” value [1] was 0.5. The “Binding of serum 6 to linear peptides of protein X1 of SARS-CoV Urbani” value [1] was 0.6, the “Binding of serum 6 to looped/cyclic peptide (PEPSCAN-ELISA)” value [1] was 0.8 and the “Binding of serum 37 to linear peptides of protein X1 of SARS-CoV Urbani” value [1] was 0.6. For the same sequence, the “Binding of serum 37 to looped/cyclic peptide (PEPSCAN-ELISA)” value [1] was 0.6, the “Binding of serum 62 to linear peptides of protein X1 of SARS-CoV Urbani” value [1] was 0.5 and the “Binding of serum 62 to looped/cyclic peptide (PEPSCAN-ELISA)” value [1] was 0.6. For the same sequence, the “Binding of serum London to linear peptides of protein X1 of SARS-CoV Urbani” value [1] was 0.2, the “Binding of serum London to looped/cyclic peptide (PEPSCAN-ELISA)” value [1] was 1.1 and the “Binding of serum SARS-green to linear peptides of protein X1 of SARS-CoV Urbani” value [1] was 0.1. For the same sequence, the “Binding of serum SARS-green to looped/cyclic peptide (PEPSCAN-ELISA)” value [1] was 0.3, the “Binding of serum SARS-yellow to linear peptides of protein X1 of SARS-CoV Urbani” value [1] was 0.2 and the “Binding of serum SARS-yellow to looped/cyclic peptide (PEPSCAN-ELISA)” value [1] was 0.5. For the same sequence, the “Binding of Control Serum Blood-Bank to Looped peptides” value [2] was 0.7, the “Binding of Control serum Blood-bank to linear peptides” value [2] was 0.6 and the “Binding of Control serum LUMC to linear peptides” value [2] was 0.5. The “Binding of Control serum LUMC to looped peptides” value [2] was 0.7, the “Binding of a rabbit serum to linear peptides” value [3] was 0.1 and the “Binding of a rabbit serum to looped peptides” value [3] was 0.8.
